We go through two compounds from patent publication US20100196290A1, “COMPOSITIONS COMPRISING BETULONIC ACID” (Valtion teknillinen tutkimuskeskus, priority 2006, published 2010).

For data set [1], the system named is bacteria. The experiment in a line: Antibacterial activity, overall statement on the examples. The class given is cell-based. The note with it: concentration of 1 μg/ml. The source says: Erythromycin was used as the control.
Data set [2] deals with Caco-2 cells. The experiment in a line: Cytotoxicity tests, viability of Caco-2 cells (LDH, WST-1 and ATP methods). The class given is cell-based, human. The following applies: 500 μM, exposure 24 hours. The method, then: Caco-2 cells (cell line used as a model for human intestine) were introduced in a 96 well plate in an amount of 35 000 cells (for LDH method), 45 000 cells (for WST-1 method), or 25 000 cells (for ATP method) per well. After cultivation of 24 hours, the cells were exposed to the compounds being tested for 24 hours by adding said compounds to the culture medium to give a concentration of 500 μM (as stock solutions in DMSO).
The influence of the compounds on the viability of the cells was measured by three different methods. Polymyxin B was used as the control. […] The amount of LDH in the sample due to exposure was quantified by means of an enzymatic reaction using the INT (iodonitrotetrazolium) colour reagent wherein the coloured reaction product formed was determined photometrically at 490 nm. In the WST-1 method, the metabolic activity of the cells after exposure was measured using the WST-1 reagent. Metabolic activity of a cell results in the generation of a coloured product from the reagent, said product being then used to evaluate the viability of the cells by photometric measurements (absorbance at 440 nm). In the ATP method, the amount of ATP within cells decreasing rapidly due to cellular damage was measured. In the method, ATP was luminometrically quantified by means of the ATP dependent luciferase-luciferin reaction. […]

For the compound `C=C(C)[C@@H]1CC[C@]2(C(=O)O)CC[C@]3(C)[C@H](CC[C@@H]4[C@@]5(C)CCC(=O)C(C)(C)[C@@H]5CC[C@]43C)[C@@H]12` [Yhdiste 5, betulonic acid], in data set [1], the antibacterial activity result was “considerable antibacterial activity”. In data set [2], the cytotoxicity result is on record as “low cytotoxicity”.

For `C=C(C)[C@@H]1CC[C@]2(COC(=O)c3ccccc3NC(C)=O)CC[C@]3(C)C(CCC4[C@@]5(C)CC[C@H](O)C(C)(C)C5CC[C@]43C)C12` (stereo partly drawn) [Yhdiste 29, 28-N-acetylanthranilic acid ester of betulin], the antibacterial activity entry in data set [1] is given as “considerable antibacterial activity”.
